Results published in patent US10844404B2, “Engineered microorgansims and methods for improved crotyl alcohol production” (priority 2015, dated 2020).

Tests used:
[1] = test system: E. coli Str. K-12 substr. MG1655 strains; assay: Crotyl alcohol tolerance study (Bioscreen growth curves, turbidity OD420-580); format: cell-based; conditions: 138 mM crotyl alcohol, M9+11.1 mM glucose, 37° C., FIG. 4B
Procedure: (§1) E. coli Str. K-12 substr. MG1655 strains 48 (wildtype) and 3-FEDB with multiple deletions (ΔyahkΔadhPΔyqhDΔadhE); and E. coli ATCC 8739 C strains (wildtype) and its variants 3-FISC (ΔadhE), 3-GAEB (ΔadhEΔyqhD), 3-GBOG (ΔadhEΔyqhDΔadhP), and 3-GDOB (ΔadhEΔyqhDΔadhPΔyahK) were struck for single colonies on LB agar from a glycerol freezer stock. Four single colonies per strain were picked and inoculated into 1 mL LB+55.7 mM glucose in deep well 96 well plates and grown at 37° C. overnight (16-20 hours). The optical density of the overnight culture was taken and cells were normalized to OD600=1 and spun down. Cells were resuspended in 1 mL of M9 minimal media+11.1 mM glucose. Cells were then spun down and washed again in 1 mL M9+11.1 mM glucose. Bioscreen honeycomb 2 plates (Cat. No. 9502550) were filled with 198 μL M9+11.1 mM glucose or M9+11.1 mM glucose+138 mM crotyl alcohol (Sigma-Aldrich). 2 μL washed cells were added to each well at N=4. Bioscreen honeycomb 2 plates were loaded into a bioscreen C MBR (Oy Growth Curves Ab Ltd) machine, an incubator system set to read turbidity at OD420-580 every 15 minutes at 37° C. For growth curve data, see FIG. 4A (E. coli Str. K-12 substr. MG1655 strains) and FIG. 4B (E. coli ATCC 8739 C variant strains).

[2] = test system: E. coli ATCC 8739 C strains; assay: as above; format: cell-based; conditions: 138 mM crotyl alcohol, FIG. 5B
Procedure: as §1

SMILES: CC=CCO [crotyl alcohol, but-2-en-1-ol]
- growth in the presence of crotyl alcohol ([1]; strain 3-FEDB (ΔyahKΔadhPΔyqhDΔadhE)): while showing an initial lag grew on crotyl alcohol
- growth in the presence of crotyl alcohol ([1]; wild-type or parental strain (48)): growth is inhibited
- growth in the presence of crotyl alcohol ([2]; M9+11.1 mM glucose, 37° C., wild-type or parental strain): growth is inhibited
- growth in the presence of crotyl alcohol ([2]; strain 3-FIDC (ΔadhE)): inhibited
- growth in the presence of crotyl alcohol ([2]; strain 3-GAEB (ΔadhEΔyqhD)): inhibited
- growth in the presence of crotyl alcohol ([2]; strain 3-GBOB (ΔadhEΔyqhDΔadhP)): while showing an initial lag grew on crotyl alcohol
- growth in the presence of crotyl alcohol ([2]; strain 3-GBOG (ΔyahKΔadhPΔyqhDΔadhE)): while showing an initial lag grew on crotyl alcohol
